From patent publication USRE48461E1, “Modulation of androgen receptor expression” (Ionis Pharmaceuticals, Inc., priority 2012, dated 2021)

What was measured:
Format in all cases: cell-based, human
[1] = system: AR mRNA; experiment: Time-course AR mRNA expression in C4-2B cells (8, 24, 48 hours); details: for Percent expression of AR compared to the control group in 8 hours / Percent expression of AR compared to the control group in 48 hours / Percent expression of AR compared to the control group in 24 hours: C4-2B cells
Method: C4-2B cells were plated at 1,000 cells per well in complete medium. […] After a treatment period of 8 hours, 24 hours, and 48 hours, AR expression was measured with primer probe set hAR-LTS00943.

[2] = system: prostate-specific antigen (PSA) mRNA; experiment: PSA mRNA levels in LMR20 cells; details: with or without DHT/R1881
Method: LMR20 cells were plated at 1,500 cells per well in phenol red-free medium with CSS. […] Results are presented in Tables 43-45 as mRNA levels expressed as a percentage of the baseline values. mRNA levels may be lowered or increased after treatment.

[3] = system: cleaved PARP; experiment: Cleaved PARP western blot in VCaP cells
[4] = system: TMPRSS2 mRNA; experiment: TMPRSS2 expression in LNCaP cells (complete, CSS+DHT medium); details: for Percent inhibition of TMPRSS2 expression in LNCaP cells cultured in CSS + DHT medium: CSS + DHT (1 nM) medium, 48 hrs; for Percent inhibition of TMPRSS2 expression in LNCaP cells cultured in complete medium: 48 hours
Method: Cells were plated at 1,000 cells per well. […] ISIS 549148 was included as a negative control. […] After an incubation period of 48 hours, RNA levels of AR, PSA and TMPRSS2 were measured.
Cells were plated at 2,000 cells per well and cultured in phenol red-free RPMI supplemented with 5% charcoal stripped serum (Gibco) media for 16 hours. […] ISIS 549148 was included as a negative control. […] After an incubation period of 4 hrs, DHT was added to the medium to a final concentration of 1 nM as indicated. RNAs were collected 48 hrs later and levels of AR, PSA and TMPRSS2 were measured. In the absence of DHT, AR expression in LNCaP cells was 95%, PSA expression was 7% and TMPRSS2 expression was 24% compared to the untreated control.

[5] = system: TMPRSS2 mRNA; experiment: TMPRSS2 expression in C4-2 cells; details: 48 hrs; for Percent inhibition of TMPRSS2 expression: C4-2 cells, CSS + DHT medium
Method: Cells were plated at 1,000 cells per well. […] After an incubation period of 48 hrs, RNA levels of AR, PSA and TMPRSS2 were measured.
Cells were plated at 2,000 cells per well and cultured in CSS media with 1 nM DHT. […] After an incubation period of 48 hrs, RNA levels of AR, PSA and TMPRSS2 were measured.

[6] = system: C4-2B cells; experiment: C4-2B cell proliferation, ASO in combination with MDV3100 (Example 21); details: for Proliferation (% untreated control) in C4-2B without MDV-3100: 5 days
Method: C4-2B cells were plated at 1,000 cells per well. […] ISIS 549148 was included as a negative control. […] After a treatment period of 5 days, the proliferative capacity of the cancer cells was measured with CellTiter 96® AQueous One Solution Cell Proliferation kit (Promega), following the manufacturer's instructions. […]

[7] = system: AR V7 variant mRNA; experiment: AR V7 variant RNA in 22RV1 cells; details: RNAiMax, 48 hrs
[8] = system: TMPRSS2 mRNA; experiment: Time-course TMPRSS2 expression in C4-2B cells
Method: C4-2B cells were plated at 1,000 cells per well in complete medium. […] ISIS 549148 was included as a negative control. […] After a treatment period of 8 hours, 24 hours, and 48 hours, AR expression was measured with primer probe set hAR-LTS00943. Results are presented in Tables 70-72 as percent expression of AR, relative to non-treated cells.
Expression analysis of prostate-specific antigen (PSA) and TMPRSS2 were also analyzed. Results are presented in Tables 73-75 as percent inhibition of PSA expression and Tables 76-78 as percent inhibition of TMPRSS2 expression, relative to non-treated cells.

Sequence: TGATTTAATGGTTGCA [ISIS 569236] (cEt/MOE gapmer chemistry, further chemistry not given here) [targets intron 1]
- Percent expression of AR compared to the control group in 8 hours ([1]; 0.04 μM): 100%
- Percent expression of AR compared to the control group in 48 hours ([1]; 0.04 μM): 80%
- Percent expression of AR compared to the control group in 8 hours ([1]; 0.2 μM): 87%
- Percent expression of AR compared to the control group in 24 hours ([1]; 0.2 μM): 35%
- Percent expression of AR compared to the control group in 48 hours ([1]; 0.2 μM): 19%
- Percent expression of AR compared to the control group in 8 hours ([1]; 1 μM): 84%
- Percent expression of AR compared to the control group in 24 hours ([1]; 1 μM): 15%
- Percent expression of AR compared to the control group in 48 hours ([1]; 1 μM): 7%
- Percent expression of AR compared to the control group in 8 hours ([1]; 5.0 μM): 58%
- Percent expression of AR compared to the control group in 24 hours ([1]; 5.0 μM): 5%
- Percent expression of AR compared to the control group in 48 hours ([1]; 5.0 μM): 2%
- AR expression ([1]; C4-2B cells, 8, 24 and 48 hours): reduced AR expression in the cells relative to the control set
- PSA mRNA levels in LMR20 cells [2]: reduced PSA levels and TMPRSS2 more extensively than the LNA gapmer ISIS 554221 or MDV3100
- cleaved PARP levels (western blot) [3]: increased in a dose-dependent manner
- Percent inhibition of TMPRSS2 expression in LNCaP cells cultured in CSS + DHT medium ([4]; 0.04 μM): 6%
- Percent inhibition of TMPRSS2 expression in LNCaP cells cultured in CSS + DHT medium ([4]; 0.2 μM): 8%
- Percent inhibition of TMPRSS2 expression in LNCaP cells cultured in CSS + DHT medium ([4]; 1 μM): 40%
- Percent inhibition of TMPRSS2 expression in LNCaP cells cultured in CSS + DHT medium ([4]; 5.0 μM): 50%
- Percent inhibition of TMPRSS2 expression in LNCaP cells cultured in complete medium ([4]; 0.04 μM): 0%
- Percent inhibition of TMPRSS2 expression in LNCaP cells cultured in complete medium ([4]; 0.2 μM): 5%
- Percent inhibition of TMPRSS2 expression in LNCaP cells cultured in complete medium ([4]; 1 μM): 40%
- Percent inhibition of TMPRSS2 expression in LNCaP cells cultured in complete medium ([4]; 5.0 μM): 48%
- Percent inhibition of TMPRSS2 expression ([5]; 0.04 μM): 0%
- Percent inhibition of TMPRSS2 expression ([5]; 0.2 μM): 11%
- Percent inhibition of TMPRSS2 expression ([5]; 1 μM): 61%
- Percent inhibition of TMPRSS2 expression ([5]; 5.0 μM): 67%
- Percent inhibition of TMPRSS2 expression in C4-2 cells cultured in complete medium ([5]; 0.04 μM): 17%
- Percent inhibition of TMPRSS2 expression in C4-2 cells cultured in complete medium ([5]; 0.2 μM): 54%
- Percent inhibition of TMPRSS2 expression in C4-2 cells cultured in complete medium ([5]; 1 μM): 67%
- Percent inhibition of TMPRSS2 expression in C4-2 cells cultured in complete medium ([5]; 5.0 μM): 67%
- Proliferation (% untreated control) in C4-2B with 0.08 μM MDV-3100 ([6]; ASO dose 0.04 μM + 0.08 μM MDV-3100): 79 % untreated control
- Proliferation (% untreated control) in C4-2B with 0.4 μM MDV-3100 ([6]; ASO dose 0.04 μM + 0.4 μM MDV-3100): 63 % untreated control
- Proliferation (% untreated control) in C4-2B with 2.0 μM MDV-3100 ([6]; ASO dose 0.04 μM + 2.0 μM MDV-3100): 45 % untreated control
- Proliferation (% untreated control) in C4-2B with […] MDV-3100 ([6]; ASO dose 0.04 μM + […] MDV-3100): 74 % untreated control
- Proliferation (% untreated control) in C4-2B without MDV-3100 ([6]; ASO dose 0.04 μM): 72 % untreated control
- Proliferation (% untreated control) in C4-2B with 0.08 μM MDV-3100 ([6]; ASO dose 0.08 μM + 0.08 μM MDV-3100): 89 % untreated control
- Proliferation (% untreated control) in C4-2B with 0.4 μM MDV-3100 ([6]; ASO dose 0.08 μM + 0.4 μM MDV-3100): 90 % untreated control
- Proliferation (% untreated control) in C4-2B with 2.0 μM MDV-3100 ([6]; ASO dose 0.08 μM + 2.0 μM MDV-3100): 44 % untreated control
- Proliferation (% untreated control) in C4-2B with […] MDV-3100 ([6]; ASO dose 0.08 μM + […] MDV-3100): 107 % untreated control
- Proliferation (% untreated control) in C4-2B without MDV-3100 ([6]; ASO dose 0.08 μM): 100 % untreated control
- Proliferation (% untreated control) in C4-2B with 0.08 μM MDV-3100 ([6]; ASO dose 0.2 μM + 0.08 μM MDV-3100): 51 % untreated control
- Proliferation (% untreated control) in C4-2B with 0.4 μM MDV-3100 ([6]; ASO dose 0.2 μM + 0.4 μM MDV-3100): 48 % untreated control
- Proliferation (% untreated control) in C4-2B with 2.0 μM MDV-3100 ([6]; ASO dose 0.2 μM + 2.0 μM MDV-3100): 48 % untreated control
- Proliferation (% untreated control) in C4-2B with […] MDV-3100 ([6]; ASO dose 0.2 μM + […] MDV-3100): 65 % untreated control
- Proliferation (% untreated control) in C4-2B without MDV-3100 ([6]; ASO dose 0.2 μM): 63 % untreated control
- Proliferation (% untreated control) in C4-2B with 0.08 μM MDV-3100 ([6]; ASO dose 1.0 μM + 0.08 μM MDV-3100): 43 % untreated control
- Proliferation (% untreated control) in C4-2B with 0.4 μM MDV-3100 ([6]; ASO dose 1.0 μM + 0.4 μM MDV-3100): 39 % untreated control
- Proliferation (% untreated control) in C4-2B with 2.0 μM MDV-3100 ([6]; ASO dose 1.0 μM + 2.0 μM MDV-3100): 46 % untreated control
- Proliferation (% untreated control) in C4-2B with […] MDV-3100 ([6]; ASO dose 1.0 μM + […] MDV-3100): 55 % untreated control
- Proliferation (% untreated control) in C4-2B without MDV-3100 ([6]; ASO dose 1.0 μM): 51 % untreated control
- synergy with MDV3100 ([6]; C4-2B cells): synergistic with MDV3100
- cell proliferation inhibited, combination ([6]; C4-2B cells, 0.2 μM ASO in combination with 0.08 μM MDV3100): 52%
- inhibited cell proliferation, ASO alone ([6]; C4-2B cells, ASO alone at 0.2 μM): 37%
- Percent inhibition of AR V7 variant ([7]; CSS + DHT medium, 1.34 nM): 54%
- Percent inhibition of AR V7 variant ([7]; CSS + DHT medium, 4.0 nM): 88%
- Percent inhibition of AR V7 variant ([7]; CSS + DHT medium, 13.4 nM): 97%
- Percent inhibition of AR V7 variant ([7]; complete medium, 1.34 nM): 30%
- Percent inhibition of AR V7 variant ([7]; complete medium, 4.0 nM): 2%
- Percent inhibition of AR V7 variant ([7]; complete medium, 13.4 nM): 46%
- Percent inhibition of AR V7 variant ([7]; complete medium, 40 nM): 81%
- Percent inhibition of TMPRSS2 expression compared to the control group in 8 hours ([8]; 0.04 μM): 0%
- Percent inhibition of TMPRSS2 expression compared to the control group in 24 hours ([8]; 0.04 μM): 10%
- Percent inhibition of TMPRSS2 expression compared to the control group in 48 hours ([8]; 0.04 μM): 22%
- Percent inhibition of TMPRSS2 expression compared to the control group in 8 hours ([8]; 0.2 μM): 0%
- Percent inhibition of TMPRSS2 expression compared to the control group in 24 hours ([8]; 0.2 μM): 32%
- Percent inhibition of TMPRSS2 expression compared to the control group in 48 hours ([8]; 0.2 μM): 57%
- Percent inhibition of TMPRSS2 expression compared to the control group in 8 hours ([8]; 1 μM): 0%
- Percent inhibition of TMPRSS2 expression compared to the control group in 24 hours ([8]; 1 μM): 57%
- Percent inhibition of TMPRSS2 expression compared to the control group in 48 hours ([8]; 1 μM): 70%
- Percent inhibition of TMPRSS2 expression compared to the control group in 8 hours ([8]; 5.0 μM): 0%
- Percent inhibition of TMPRSS2 expression compared to the control group in 24 hours ([8]; 5.0 μM): 66%
- Percent inhibition of TMPRSS2 expression compared to the control group in 48 hours ([8]; 5.0 μM): 75%
- TMPRSS2 expression ([8]; time course): reduced PSA and TMPRSS2 expression in the cells relative to the control set at the 24 hr and 48 hr time points
